Here are results for 9 compounds from ChEMBL document CHEMBL1147869, “Computational approach to the basicity of a series of alpha1-adrenoceptor ligands in aqueous solution” (Bioorg Med Chem, 2007).

The nature of this data set: Dissociation constant, pKa of the compound. In kind it is physicochemical.

Take `c1cc(Nc2ccc(NC3=NCCN3)cc2)ccc1NC1=NCCN1`: the pKa was 9.9. For the compound `N=C(N)Nc1ccc(Nc2ccc(NC(=N)N)cc2)cc1`, the pKa came to 10.8. Turning to `N=C(N)Nc1ccc(C(=O)c2ccc(NC(=N)N)cc2)cc1`, the pKa turned out to be 9.4. On to `O=C(c1ccc(NC2=NCCN2)cc1)c1ccc(NC2=NCCN2)cc1`, for which the pKa is 8.6. `c1cc(NC2=NCCN2)ccc1Cc1ccc(NC2=NCCN2)cc1`: the pKa was found to be 9.8. `N=C(N)Nc1ccc(Cc2ccc(NC(=N)N)cc2)cc1` came in with a pKa of 10.5.

Take `COc1cc2nc(N3CCN(C(=O)C4COc5ccccc5O4)CC3)nc(N)c2cc1OC` (centres undefined) [DOXAZOSIN]: the pKa turned out to be 6.9. The compound `CNC[C@H](O)c1ccc(O)c(O)c1` [EPINEPHRINE] showed a pKa of 8.59. `NC[C@H](O)c1ccc(O)c(O)c1` [NOREPINEPHRINE] gave a pKa of 8.58.
